Source: article PMC6815936, “A Pan-Cyclophilin Inhibitor, CRV431, Decreases Fibrosis and Tumor Development in Chronic Liver Disease Models” (The Journal of Pharmacology and Experimental Therapeutics, 2019)

Test system: CCl4-induced liver fibrosis in C57BL/6 mice
Assay: Carbon tetrachloride mouse model of liver fibrosis
Assay type: in vivo
Conditions: OCA 10 mg/kg per day; combination 50 and 10 mg/kg per day, oral, 6 weeks
Method: Carbon tetrachloride (CCl4)–induced liver fibrosis was conducted in C57BL/6J male mice starting at 7 weeks of age. Mice were injected intraperitoneally twice per week with 0.5–0.75 ml/kg CCL4 (289116; Sigma-Aldrich) and corn oil (0.05 ml total dose per mouse) for 6 weeks. CRV431, obeticholic acid (OCA, HY-12222; MedChemExpress), and vehicle were administered by daily oral gavage for the entire duration of the study. CRV431 and OCA were dissolved in a self-microemulsifying drug vehicle ([Trepanier et al., 2018]), and then diluted with PBS. CRV431 was administered at 50 mg/kg per day, and OCA was administered at 10 mg/kg per day.
Blood and livers were collected at the end of the NASH and CCl4 studies. In some studies, serum or plasma was isolated from freshly-collected blood, whereas in other studies blood was frozen for later analysis of CRV431 concentration. Livers were immersion-fixed in zinc-formalin and paraffin-embedded for histologic processing. Liver sections were stained with hematoxylin and eosin for assessment of inflammation, ballooning, and steatosis, and with sirius red for assessment of collagen I and III (fibrosis). Sirius red staining was quantified by blinded analysis in one section per liver using ImageJ software. […]

CC[C@H]1[C@@H](O)[C@@H]2[C@H](CC[C@]3(C)[C@@H]([C@H](C)CCC(=O)O)CC[C@@H]23)[C@@]2(C)CC[C@@H](O)C[C@@H]12 [OCA, obeticholic acid, reference compound]
effect on liver fibrosis, sirius red staining (in words): no statistically significant effect
